Test system: T1, lipase from Aspergillus niger (LAN)
T1 construct: gene lipA; commercial Sigma-Aldrich lipase preparation from Aspergillus niger, free (not immobilized)
Test: p-nitrophenol release at […] nm, Hanes-Woolf plot
Assay type: biochemical
Details: free enzyme, 30 °C, 2 min, 1000 rpm; substrate solution range printed as 0.005–1.5 M; apparent

`CCCCCCCCCCCCCCCC(=O)Oc1ccc([N+](=O)[O-])cc1` [p-nitrophenyl palmitate] showed a Km of 580 ± 20 µM.

Source: article PMC9068721, “Evaluation of MxOy/fucoidan hybrid system and their application in lipase immobilization process” (Scientific Reports, 2022)
